Experimental data reported in patent publication US11773368B2, “Culture method for differentiating primordial germ cells into functionally mature oocytes” (TOKYO UNIVERSITY OF AGRICULTURE, priority 2015, dated 2023).

Test system: ovaries cultured for 17 days
Assay: Histological analysis of ovary obtained by in vitro culture (H&E, laminin immunofluorescence)
Assay type: cell-based, mouse
Procedure: The ovaries cultured for 17 days in (i) FBS group or (v) FBS/10 μM ICI group and the ovaries from female mouse at 10 days after birth were processed for hematoxylin-eosin staining and laminin immunofluorescence staining.
Concretely, the ovaries were fixed for 4 hours at room temperature in 1% paraformaldehyde (PFA)/0.1% glutaraldehyde in 0.05 M phosphate buffer. For H&E staining, the ovaries were embedded in paraffin blocks after a routine protocol, and 4-μm-thick serial sections were prepared. After H&E staining, sections were observed under an IX71 microscope (Olympus). For laminin immunofluorescence staining, ovaries were cut into four to eight pieces, and the tissue sections were incubated for 3 days at 4° C. with an anti-laminin rabbit polyclonal antibody (Abcam) at a dilution of 1:100. Then the tissue sections of the ovaries were incubated for 3 days at 4° C. with an Alexa Fluor 488-conjugated goat anti-rabbit IgG at a dilution of 1:500 (Molecular Probes, Thermo Fisher Scientific Inc.). The obtained tissue sections of the ovaries were further processed for 4′,6-diamidino-2-phenylindole (DAPI; Life Technologies) staining. The tissue sections of the ovaries were observed under Zeiss LSM 710 confocal microscope.

C[C@]12CC[C@@H]3c4ccc(O)cc4C[C@@H](CCCCCCCCC[S+]([O-])CCCC(F)(F)C(F)(F)F)[C@H]3[C@@H]1CC[C@@H]2O (stereo partly drawn) [ICI, 7α, 17β-[9-([4,4,5,5,5-pentafluoropentyl]sulfinyl)nonyl]estra-1,3,5(10)-triene-3,17-diol]
laminin localization (immunofluorescence) ((v) FBS/10 μM ICI group, day 17): laminin is circularly localized around the follicle | multioocyte follicle (multiple oocytes in one follicle) ((v) FBS/ICI group, FIG. 5b): very few
